Assay results reported in ChEMBL document CHEMBL1138025, “Nocathiacin I analogues: synthesis, in vitro and in vivo biological activity of novel semi-synthetic thiazolyl peptide antibiotics” (Bioorg Med Chem Lett, 2004).
In brackets after ≈: the same amount, converted by molar mass.

Legend:
Staphylococcus aureus = assay: In vitro antibacterial activity against methicillin-sensitive Staphylococcus aureus A15090; type: functional
Enterococcus faecalis = assay: In vitro antibacterial activity against methicillin-sensitive Enterococcus faecalis A20688; type: functional
Streptococcus pneumoniae = assay: In vitro antibacterial activity against penicillin-resistant Streptococcus pneumoniae A28272; type: functional
Mus musculus = assay: In vivo efficacy (PD50) against lethal Staphylococcus aureus systemic infection model in mice; type: functional; conditions: read-out: PD50
[1] = Equilibrium water solubility at pH 3.4; type: physicochemical
[2] = Equilibrium water solubility at pH 3.0; type: physicochemical
[3] = Equilibrium water solubility at pH 3.1; type: physicochemical
[4] = Equilibrium water solubility at pH 2.9; type: physicochemical

Compound	MIC (Staphylococcus aureus) [µg/mL]	MIC (Enterococcus faecalis) [µg/mL]	MIC (Streptococcus pneumoniae) [µg/mL]	ED50 (Mus musculus) [mg/kg]	solubility thermodynamic [1] [µg/mL]	solubility thermodynamic [2] [µg/mL]	solubility thermodynamic [3] [µg/mL]	solubility thermodynamic [4] [µg/mL]
CO/C(C)=C1/NC(=O)[C@H]([C@@H](C)O)NC(=O)c2csc(n2)-c2cc(O)c(-c3nc(C(=O)NC(CN(C)CCO)C(N)=O)cs3)nc2-c2csc(n2)[C@@H]2COC(=O)c3c4c5c(cccc5n3O)COC(=O)[C@@H](O[C@H]3C[C@](C)(O)[C@H](N(C)C)[C@H](C)O3)[C@@H](OC4)[C@H](NC(=O)c3csc1n3)c1nc(cs1)C(=O)N2 (stereo partly drawn)	0.01 (≈ 0.00661 µM)	0.06 (≈ 0.0397 µM)	0.01 (≈ 0.00661 µM)	0.8	> 10000			
CO/C(C)=C1/NC(=O)[C@H]([C@@H](C)O)NC(=O)c2csc(n2)-c2cc(O)c(-c3nc(C(=O)NC(CN4CCN(c5ccccn5)CC4)C(N)=O)cs3)nc2-c2csc(n2)[C@@H]2COC(=O)c3c4c5c(cccc5n3O)COC(=O)[C@@H](O[C@H]3C[C@](C)(O)[C@H](N(C)C)[C@H](C)O3)[C@@H](OC4)[C@H](NC(=O)c3csc1n3)c1nc(cs1)C(=O)N2 (stereo partly drawn)	0.12 (≈ 0.075 µM)	0.25 (≈ 0.156 µM)	0.03 (≈ 0.0187 µM)	< 0.62		> 2400		
CO/C(C)=C1/NC(=O)[C@H]([C@@H](C)O)NC(=O)c2csc(n2)-c2cc(O)c(-c3nc(C(=O)NC(CN(C)CCCNc4ccncc4)C(N)=O)cs3)nc2-c2csc(n2)[C@@H]2COC(=O)c3c4c5c(cccc5n3O)COC(=O)[C@@H](O[C@H]3C[C@](C)(O)[C@H](N(C)C)[C@H](C)O3)[C@@H](OC4)[C@H](NC(=O)c3csc1n3)c1nc(cs1)C(=O)N2 (stereo partly drawn)	1 (≈ 0.624 µM)	0.5 (≈ 0.312 µM)	0.25 (≈ 0.156 µM)	> 10		> 3000		
CO/C(C)=C1/NC(=O)[C@H]([C@@H](C)O)NC(=O)c2csc(n2)-c2cc(O)c(-c3nc(C(=O)NC(CNCCNC(C)=O)C(N)=O)cs3)nc2-c2csc(n2)[C@@H]2COC(=O)c3c4c5c(cccc5n3O)COC(=O)[C@@H](O[C@H]3C[C@](C)(O)[C@H](N(C)C)[C@H](C)O3)[C@@H](OC4)[C@H](NC(=O)c3csc1n3)c1nc(cs1)C(=O)N2 (stereo partly drawn)	1 (≈ 0.649 µM)	4 (≈ 2.6 µM)	0.12 (≈ 0.0779 µM)	> 10			> 3000	
CO/C(C)=C1/NC(=O)[C@H]([C@@H](C)O)NC(=O)c2csc(n2)-c2cc(O)c(-c3nc(C(=O)NC(CNCCN(C)C)C(N)=O)cs3)nc2-c2csc(n2)[C@@H]2COC(=O)c3c4c5c(cccc5n3O)COC(=O)[C@@H](O[C@H]3C[C@](C)(O)[C@H](N(C)C)[C@H](C)O3)[C@@H](OC4)[C@H](NC(=O)c3csc1n3)c1nc(cs1)C(=O)N2 (stereo partly drawn)	2 (≈ 1.31 µM)	4 (≈ 2.62 µM)	0.03 (≈ 0.0197 µM)	4.2			> 3800	
CO/C(C)=C1/NC(=O)[C@H]([C@@H](C)O)NC(=O)c2csc(n2)-c2cc(O)c(-c3nc(C(=O)NC(CN4CCN(C)CC4)C(N)=O)cs3)nc2-c2csc(n2)[C@@H]2COC(=O)c3c4c5c(cccc5n3O)COC(=O)[C@@H](O[C@H]3C[C@](C)(O)[C@H](N(C)C)[C@H](C)O3)[C@@H](OC4)[C@H](NC(=O)c3csc1n3)c1nc(cs1)C(=O)N2 (stereo partly drawn)	0.25 (≈ 0.163 µM)	0.5 (≈ 0.325 µM)	0.12 (≈ 0.078 µM)	1.4	> 10000			
CO/C(C)=C1/NC(=O)[C@H]([C@@H](C)O)NC(=O)c2csc(n2)-c2cc(O)c(-c3nc(C(=O)NC(CN(C)CCN4CCCCC4)C(N)=O)cs3)nc2-c2csc(n2)[C@@H]2COC(=O)c3c4c5c(cccc5n3O)COC(=O)[C@@H](O[C@H]3C[C@](C)(O)[C@H](N(C)C)[C@H](C)O3)[C@@H](OC4)[C@H](NC(=O)c3csc1n3)c1nc(cs1)C(=O)N2 (stereo partly drawn)	0.12 (≈ 0.076 µM)	1 (≈ 0.633 µM)	0.03 (≈ 0.019 µM)	3.2		> 2700		
CO/C(C)=C1/NC(=O)[C@H]([C@@H](C)O)NC(=O)c2csc(n2)-c2cc(O)c(-c3nc(C(=O)NC(CN4CCN(CCN(C)C)CC4)C(N)=O)cs3)nc2-c2csc(n2)[C@@H]2COC(=O)c3c4c5c(cccc5n3O)COC(=O)[C@@H](O[C@H]3C[C@](C)(O)[C@H](N(C)C)[C@H](C)O3)[C@@H](OC4)[C@H](NC(=O)c3csc1n3)c1nc(cs1)C(=O)N2 (stereo partly drawn)	0.5 (≈ 0.314 µM)	0.12 (≈ 0.0752 µM)	0.25 (≈ 0.157 µM)	5.3	> 3800			
CO/C(C)=C1/NC(=O)[C@H]([C@@H](C)O)NC(=O)c2csc(n2)-c2cc(O)c(-c3nc(C(=O)NC(CN(CCO)CCO)C(N)=O)cs3)nc2-c2csc(n2)[C@@H]2COC(=O)c3c4c5c(cccc5n3O)COC(=O)[C@@H](O[C@H]3C[C@](C)(O)[C@H](N(C)C)[C@H](C)O3)[C@@H](OC4)[C@H](NC(=O)c3csc1n3)c1nc(cs1)C(=O)N2 (stereo partly drawn)	0.12 (≈ 0.0778 µM)	0.25 (≈ 0.162 µM)	0.01 (≈ 0.00648 µM)	5				> 1700
CO/C(C)=C1/NC(=O)[C@H]([C@@H](C)O)NC(=O)c2csc(n2)-c2cc(O)c(-c3nc(C(=O)NC(CN4CCOCC4)C(N)=O)cs3)nc2-c2csc(n2)[C@@H]2COC(=O)c3c4c5c(cccc5n3O)COC(=O)[C@@H](O[C@H]3C[C@](C)(O)[C@H](N(C)C)[C@H](C)O3)[C@@H](OC4)[C@H](NC(=O)c3csc1n3)c1nc(cs1)C(=O)N2 (stereo partly drawn)	0.007 (≈ 0.00459 µM)	0.01 (≈ 0.00656 µM)	0.01 (≈ 0.00656 µM)	0.8			> 2100	
CO/C(C)=C1/NC(=O)[C@H]([C@@H](C)O)NC(=O)c2csc(n2)-c2cc(O)c(-c3nc(C(=O)NC(CNCCc4ccccn4)C(N)=O)cs3)nc2-c2csc(n2)C2COC(=O)c3c4c5c(cccc5n3O)COC(=O)[C@@H](O[C@H]3C[C@](C)(O)[C@H](N(C)C)[C@H](C)O3)[C@@H](OC4)[C@H](NC(=O)c3csc1n3)c1nc(cs1)C(=O)N2 (stereo partly drawn)	1 (≈ 0.641 µM)	1 (≈ 0.641 µM)	0.25 (≈ 0.16 µM)	2.8	> 10000			
CCOC(=O)CN1CCN(CC(NC(=O)c2csc(-c3nc4c(cc3O)-c3nc(cs3)C(=O)N[C@@H]([C@@H](C)O)C(=O)N/C(=C(\C)OC)c3nc(cs3)C(=O)N[C@@H]3c5nc(cs5)C(=O)N[C@@H](COC(=O)c5c6c7c(cccc7n5O)COC(=O)[C@@H](O[C@H]5C[C@](C)(O)[C@H](N(C)C)[C@H](C)O5)[C@H]3OC6)c3nc-4cs3)n2)C(N)=O)CC1 (stereo partly drawn)	0.06 (≈ 0.0373 µM)	0.25 (≈ 0.155 µM)	0.007 (≈ 0.00435 µM)					
CO/C(C)=C1/NC(=O)[C@H]([C@@H](C)O)NC(=O)c2csc(n2)-c2cc(O)c(-c3nc(C(=O)NC(CN4CCN(CCOCCO)CC4)C(N)=O)cs3)nc2-c2csc(n2)[C@@H]2COC(=O)c3c4c5c(cccc5n3O)COC(=O)[C@@H](O[C@H]3C[C@](C)(O)[C@H](N(C)C)[C@H](C)O3)[C@@H](OC4)[C@H](NC(=O)c3csc1n3)c1nc(cs1)C(=O)N2 (stereo partly drawn)	0.5 (≈ 0.31 µM)	1 (≈ 0.62 µM)	0.12 (≈ 0.0745 µM)	1.34			> 3000	
CO/C(C)=C1/NC(=O)[C@H]([C@@H](C)O)NC(=O)c2csc(n2)-c2cc(O)c(-c3nc(C(=O)NC(CN4CCN(c5ccncc5)CC4)C(N)=O)cs3)nc2-c2csc(n2)[C@@H]2COC(=O)c3c4c5c(cccc5n3O)COC(=O)[C@@H](O[C@H]3C[C@](C)(O)[C@H](N(C)C)[C@H](C)O3)[C@@H](OC4)[C@H](NC(=O)c3csc1n3)c1nc(cs1)C(=O)N2 (stereo partly drawn)	0.25 (≈ 0.156 µM)	0.5 (≈ 0.312 µM)	0.06 (≈ 0.0375 µM)	4.5		> 12500		
CNCCN(C)CC(NC(=O)c1csc(-c2nc3c(cc2O)-c2nc(cs2)C(=O)N[C@@H]([C@@H](C)O)C(=O)N/C(=C(\C)OC)c2nc(cs2)C(=O)N[C@@H]2c4nc(cs4)C(=O)N[C@@H](COC(=O)c4c5c6c(cccc6n4O)COC(=O)[C@@H](O[C@H]4C[C@](C)(O)[C@H](N(C)C)[C@H](C)O4)[C@H]2OC5)c2nc-3cs2)n1)C(N)=O (stereo partly drawn)	0.06 (≈ 0.0393 µM)	0.5 (≈ 0.328 µM)	0.001 (≈ 0.000655 µM)	> 10		> 2800		
CO/C(C)=C1/NC(=O)[C@H]([C@@H](C)O)NC(=O)c2csc(n2)-c2cc(O)c(-c3nc(C(=O)NC(CN(C)CCN(C)C)C(N)=O)cs3)nc2-c2csc(n2)[C@@H]2COC(=O)c3c4c5c(cccc5n3O)COC(=O)[C@@H](O[C@H]3C[C@](C)(O)[C@H](N(C)C)[C@H](C)O3)[C@@H](OC4)[C@H](NC(=O)c3csc1n3)c1nc(cs1)C(=O)N2 (stereo partly drawn)	0.06 (≈ 0.039 µM)	0.5 (≈ 0.325 µM)	0.007 (≈ 0.00455 µM)	3.3				> 10000
CO/C(C)=C1/NC(=O)[C@H]([C@@H](C)O)NC(=O)c2csc(n2)-c2cc(O)c(-c3nc(C(=O)NC(CN4CCN(c5cccnc5)CC4)C(N)=O)cs3)nc2-c2csc(n2)[C@@H]2COC(=O)c3c4c5c(cccc5n3O)COC(=O)[C@@H](O[C@H]3C[C@](C)(O)[C@H](N(C)C)[C@H](C)O3)[C@@H](OC4)[C@H](NC(=O)c3csc1n3)c1nc(cs1)C(=O)N2 (stereo partly drawn)	0.06 (≈ 0.0375 µM)	0.25 (≈ 0.156 µM)	0.007 (≈ 0.00437 µM)	1.43		> 2300		
CO/C(C)=C1/NC(=O)[C@H]([C@@H](C)O)NC(=O)c2csc(n2)-c2cc(O)c(-c3nc(C(=O)NC(CN4CCN(CCN5CCOCC5)CC4)C(N)=O)cs3)nc2-c2csc(n2)[C@@H]2COC(=O)c3c4c5c(cccc5n3O)COC(=O)[C@@H](O[C@H]3C[C@](C)(O)[C@H](N(C)C)[C@H](C)O3)[C@@H](OC4)[C@H](NC(=O)c3csc1n3)c1nc(cs1)C(=O)N2 (stereo partly drawn)	0.25 (≈ 0.153 µM)	0.5 (≈ 0.305 µM)	0.06 (≈ 0.0367 µM)	1.4		> 12300		
CO/C(C)=C1/NC(=O)[C@H]([C@@H](C)O)NC(=O)c2csc(n2)-c2cc(O)c(-c3nc(C(=O)NC(CN4CCCC4)C(N)=O)cs3)nc2-c2csc(n2)[C@@H]2COC(=O)c3c4c5c(cccc5n3O)COC(=O)[C@@H](O[C@H]3C[C@](C)(O)[C@H](N(C)C)[C@H](C)O3)[C@@H](OC4)[C@H](NC(=O)c3csc1n3)c1nc(cs1)C(=O)N2 (stereo partly drawn)	0.06 (≈ 0.0398 µM)	0.5 (≈ 0.331 µM)	0.01 (≈ 0.00663 µM)	2.5				> 3000
